Test system: hairy scalp of men with premature alopecia
Details: 0.5% in excipient, 0.5 to 1 ml on the head scalp, one week
Description: It is wanted to evaluate the genin of Calocarpum, (Chrysophyllum or Lucuma) as obtained of the example 6 according to this invention, as capillary rubefacient agent for which six affected gentlemen of premature alopecia are tried, to witch are requested to subject themselves to one weeks of test, which consists on being applied from 0.5 to 1 ml of the diluted products in test in the affected area of the head scalp in the clean skin. The two men of the group #1, receives the mixture of genin of Calocarpum, in a preparation consisting on the product as obtained of the example 6, to 0.5% in an excipient. The excipient composition for 100 g is: water 20 g, propyleneglycol 25 g, sunflower oil 54.5 g. The two men of the group #2, receives the same composition of the previous excipient and resorcinol to 0.5%. The two men of the group #3, receives the before mentioned excipient alone. The following questionnaire is registered and the pertinent observations of the test are made.
Age; sex; since when they present the alopecia; duration of the applied treatment; 1.—Was the treatment irritating: a) it was not irritating, b) light, c) moderate, d) high, e) severe. 2.—Irritation type: a) hyperaemia (heat), b) inflammation, c) vesicatión (it produces blisters) 3.—keratolytic (desquamation production): a) without effect, b) light, c) moderate, d) extensive. […]

Oc1cccc(O)c1 [resorcinol]
keratolysis (desquamation production): moderate keratolysis

— US20080261291A1 (priority 2004, published 2008)
